{"source": "patent US11034666B2", "about": "“Anti-inflammatory and antitumor 2-oxothiazoles and 2-oxothiophenes compounds” (Avexxin AS, priority 2013, dated 2021)", "key": {"MAS98.12 xenograft": {"test_system": "MAS98.12 xenograft", "details": "FIG. 1; data from an earlier study in the same animal model [13]; cited from earlier work"}, "[1]": {"test_system": "collagen-induced arthritis (CIA) mouse model", "test": "Prophylactic collagen-induced arthritis (CIA) study", "format": "in vivo, male DBA/1 mice", "experimental": "The prophylactic effect of Compound A on CIA model in male DBA/1 mice^57 following intraperitoneal (ip) administration, treatment starting 1 hour prior to the last immunization was studied. A study comparing naïve mice (healthy, non-CIA, non-treated), vehicle-treated mice (CIA with DMSO, ip) and CIA mice treated daily with Compound A (7.5 mg/kg, ip) or MTX (0.3 mg/kg, ip) was performed. CIA developed rapidly in mice immunized with CII. In the prophylactic study, a 100% incidence of CIA was observed by day 29 in CII-immunized mice, with maximum AI of 8.55 observed at 41 days post immunization. The AI and incidence of all groups increased in a time-dependent mode from day 25 to day 41.\nSeparate prophylactic and therapeutic efficacy studies of COMPOUND A were performed. Methotrexate (MTX) (Jiangsu Hengrui Medicine Co, #11041411), Enbrel (Boehringer Ingelheim Pharma KG, # F39487), and vehicle (DMSO 100%, Sigma Aldrich # D2650) were administered to all groups via intraperitoneal injection once daily at a dose volume of 2 mL/kg. Observations for morbidity, mortality, injury, and the availability of food and water were conducted twice daily for all animals. Clinical observations were conducted daily during the study. Body weights were measured and recorded prior to randomization and then once daily during the study. Food consumption was measured and recorded daily. Biopsies for mid-term histology analysis were obtained on Day 13 in the prophylactic study. Necropsy examinations were performed at study termination; plasma samples were collected, organ weights were recorded\n(§1) For the prophylactic and the therapeutic studies, CIA was induced in male DBA/1 mice (except naïve mice) by immunization with 0.1 mL emulsion containing an equal volume of bovine type II collagen solution (2 mg/mL) and Freuds Complete Adjuvant at the tail base. The first injection was given on Day 0 and the second injection as booster was given on Day 21 (41-43). COMPOUND A, vehicle (DMSO) and MTX (0.3 mg/kg) were administered daily, Enbrel (25 mg/kg) was administrated twice a week. For the prophylactic study, treatment started one hour before the second collagen injection and continued for 21 days except for the histology groups that were sacrificed at Day 13 ([…]). For the therapeutic study, treatment started at Day 28 and continued for 14 days.\nCIA Assessment and Treatment. CIA was assessed in mice by two blinded observers to measure paw swelling with a capacity measurement method on Day 0, Day 20, Day 22, Day 25, Day 27, Day 29, Day 32, Day 34, Day 36, Day 39 and Day 41 after the first injection. The occurrence of arthritis was observed by scoring all paws for severity of erythema and swelling, using a clinical score ranging from 0 (no swelling) to 4 (severe swelling and erythema). The physical condition of the animals was observed daily. Scores and overall evaluation of the histology group arms were performed in the same way as the main groups. However, the values measured were not included in the mean value calculations of the main groups. The YLS-7B Foot Volume Measuring Instrument (Huaibei China Bio Equipment) was used to measure the foot volume of mice. The occurrence of arthritis was observed by scoring all paws for severity of erythema and swelling, using a clinical score ranging from 0 (no swelling) to 4 (severe swelling and erythema), i.e. yielding maximum arthritic index (AI) score 16 (46).\nMeasurement of the histopathology and clinical observations. At the end of the studies, one hind foot of each mouse was collected for histopathology. The foot including the ankle was fixed in 10% neutral formalin. The ankle joints were decalcified, dehydrated, embedded in paraffin, sectioned and stained with routine hematoxylin-eosin. The sections were studied using light microscopy (10×10 and 20×10 magnifications). Arthritis damage (histological damage score) was evaluated and scored by an investigator blinded for the treatment regimen. […]"}, "PGE2 [2]": {"test_system": "PGE2", "test": "Plasma PGE2 EIA, prophylactic CIA study", "format": "in vivo, male DBA/1 mice", "details": "prophylactic CIA study; Compound A 7.5 mg/kg, MTX 0.3 mg/kg; vehicle 223.4±107; mean ± SD", "experimental": "PGE2 is recognized as an important contributor to the joint inflammation in rheumatoid arthritis,^60 and we investigated if plasma PGE2 levels were changed in response to treatment. […] There were no significant differences between the treatment groups (p>0.05).\n(§2) PGE2 EIA analysis of blood plasma from the prophylactic and therapeutic CIA studies was performed according to kit protocol. Plasma samples were diluted 1:1000-1:6000 in EIA buffer and allowed to hybridize over-night (18 hrs, 4° C.). The plate was read using a Multiscan plate reader (Ascent Labsystems) (OD550 nm). The corresponding Ascent software for Multiscan, Version 2.4.1 was used to obtain the data. PGE2 levels for all treatments are shown relative to the DMSO-treated vehicle arthritic mice (n=10-11 mice in each category±SD).\nas §1"}, "[3]": {"test_system": "rat streptozocin-induced model of human chronic renal disease", "test": "Rat streptozocin-induced model of human chronic renal disease, urine protein", "format": "in vivo, Sprague Dawley rats", "details": "AVX235 10 mg/kg ip; losartan 30 mg/kg oral gavage daily; 2 weeks", "experimental": "The therapeutic effect of AVX235 was tested in the rat streptozocin-induced model of human chronic renal disease and compared against losartan (positive control).\nSprague Dawley rats (Harlan laboratories, USA) of an average weight of 130-150 grams were divided in groups of 8 animals per group and were treated according to table 7:\nAVX235 was injected intraperitoneally, once daily for the first 4 days and then every two days. Losartan was administered daily, by oral gavage. At 2 weeks post experiment initiation, urine was collected over a period of 24 h and total protein in mg was measured."}, "[4]": {"test_system": "collagen-induced arthritis (CIA) mouse model", "test": "Therapeutic collagen-induced arthritis (CIA) study", "format": "in vivo, male DBA/1 mice", "details": "Days 36 to 41; Compound A 30 mg/kg ip daily; Enbrel 25 mg/kg twice a week", "source_text": "The therapeutic effect of Compound A on CIA model in male DBA/1 mice following ip administration, treatment starting 7 days after the last immunization was explored. CIA developed rapidly in mice immunized with CII, with maximum AI of 10.2 observed at 39 days post immunization. The AI and incidence of vehicle- and Compound A treated groups increased in a time-dependent mode from Days 29 to 41. […] Compound A and Enbrel performed equally well; there were no significant difference between these treatments groups.\nSeparate prophylactic and therapeutic efficacy studies of COMPOUND A were performed. […] Body weights were measured and recorded prior to randomization and then once daily during the study. Food consumption was measured and recorded daily. […] Necropsy examinations were performed at study termination; plasma samples were collected, organ weights were recorded […]\nCIA Assessment and Treatment. CIA was assessed in mice by two blinded observers to measure paw swelling with a capacity measurement method on Day 0, Day 20, Day 22, Day 25, Day 27, Day 29, Day 32, Day 34, Day 36, Day 39 and Day 41 after the first injection. […] However, the values measured were not included in the mean value calculations of the main groups. […]"}, "PGE2 [5]": {"test_system": "PGE2", "test": "Plasma PGE2 EIA, therapeutic CIA study", "format": "in vivo, male DBA/1 mice", "details": "therapeutic CIA study; Compound A 30 mg/kg, Enbrel 25 mg/kg; vehicle 231.1±110; mean ± SD", "experimental": "There were no significant differences between the treatment groups (p>0.05).\nas §2, §1"}, "[6]": {"details": "hind paw, Compound A 7.5 mg/kg, MTX 0.3 mg/kg"}}, "data": [{"molecule": "Cn1c(=O)n(-c2ccc(C(C)(C)C#N)cc2)c2c3cc(-c4cnc5ccccc5c4)ccc3ncc21", "note": "[BEZ235]", "values": [{"measurement": "tumor volume (in words)", "setting": "MAS98.12 xenograft", "result": "tumor volumes are reduced"}]}, {"molecule": "CN(Cc1cnc2nc(N)nc(N)c2n1)c1ccc(C(=O)N[C@@H](CCC(=O)O)C(=O)O)cc1", "note": "[MTX, Methotrexate, reference compound]", "values": [{"measurement": "arthritic index (AI) in comparison to the CIA control group (in words)", "setting": "[1]; Days 32 to 41, Compound A 7.5 mg/kg ip daily, MTX 0.3 mg/kg ip daily", "result": "significantly reduced"}, {"measurement": "articular cavity and peripheral tissue inflammatory cell infiltration, histopathology vs vehicle (in words)", "setting": "[1]; [6]", "result": "did not reduce"}, {"measurement": "capillary and synovial hyperplasia, histopathology vs vehicle (in words)", "setting": "[1]; [6]", "result": "did not reduce"}, {"measurement": "cartilage damage, histopathology vs vehicle (in words)", "setting": "[1]; [6]", "result": "did not reduce"}, {"measurement": "plasma PGE2 level", "setting": "PGE2 [2]", "result": "107.3 ± 62", "unit": "ng/mL"}]}, {"molecule": "CCCCc1nc(Cl)c(CO)n1Cc1ccc(-c2ccccc2-c2nn[nH]n2)cc1", "note": "[losartan]", "values": [{"measurement": "therapeutic effect on STZ-induced urine protein (in words)", "setting": "[3]", "result": "protected rats from the STZ effect"}]}, {"molecule": "Enbrel", "values": [{"measurement": "arthritic index (AI) in comparison to the CIA control group (in words)", "setting": "[4]", "result": "significantly decreased"}, {"measurement": "plasma PGE2 level", "setting": "PGE2 [5]", "result": "187.5 ± 74", "unit": "ng/mL"}]}]}
